Source: patent publication US20240358705A1, “COMPOSITIONS AND METHODS FOR TREATMENT OF CANCER” (Board of Supervisors of Louisiana State University and …, priority 2021, published 2024)

How the values were obtained:
B16 = test: In vivo adoptive cellular transfer, pmel-I, B16 tumor; set-up: species or system mouse; settings: T cells pre-treated with 10 μM; B16 tumor bearing mice; vs sham and DMSO pre-treated
Procedure: (§1) C57BL/6N mice were injected with 3×10^5 B16-OVA or B16 subcutaneously in the right flank. Five days after injection, mice were administered 200 μg cyclophosphamide monohydrate (Sigma #C73971G) dissolved in PBS by intraperitoneal injection to induce minor lymphodepletion. 48 hours after lymphodepletion, mice were intravenously adoptively transferred 2.5×10^6 CD8 OT-I or CD8 […] pre-treated ex vivo following the in vitro T cell activation method. Tumor growth rates were determined by tumor volume measurement beginning on day four and continuing three times per week for the study duration. Tumor volumes were determined by the ellipsoid formula: [(Length×Width^2)/2]. At the end of study, tumors were either fixed in 10% formalin or dissociated into a single-cell suspension for flow cytometry. Single-cell suspension was performed by chopping tumor tissue with scissors followed by a 30-minute incubation at 37° C. with 100 µg/ml DNase I (Roche #10104159001) and 0.5 U/ml Liberase (Roche #05401127001) in PBS. Solution was then diluted with cRPMI-1640 and passed through a 70 μm cell strainer, pelleted and resuspended in ACK lysis buffer to remove erythrocytes. Cells were then counted, filtered through a 70 μm cell strainer, and 10×10^6 cells were aliquoted and stained following the immune profiling by flow cytometry method.

CD8 T cells = test: XFe ATP rate assay, CD8 T cells; assay type: cell-based, mouse; settings: 10 μM, 72 hours
Procedure: (§2) Lymph nodes and spleen were isolated from wild-type C57BL/6N mice. Tissue was mechanically dissociated with the back of a syringe plunger and passed through a 70 M filter. […] Treated cells were incubated at 37° C., 5% CO2 for the designed study duration.
Treated CD8 T cell were prepared following the in vitro T cell activation method and incubated for 72 hours at 37° C., 5% CO2. Treated BM-MDSCs were prepared followed the in vitro BM-MDSCs differentiation method. The XFe ATP rate assay preparation and analysis was conducted following the manufacturer's user guide and instructions. […] Treated cells were removed from culture, pelleted and resuspended in warm assay medium at a concentration of 3×10^6 cells/ml (1.5×10^5 cells/well) for CD8 T cells and 2.6×10^6 cells/ml (1.3×10^5 cells/well) for BM-MDSCs. Cells were adhered to the culture plate by centrifugation 200×G, for one minute with zero brake per the manufacturer's instructions for immobilization of non-adherent cells (Agilent, Santa Clara, CA). […] Results were procured using the Seahorse XF real-time ATP rate assay report generator.

CD4 T cells = test: CD4 T cell activation markers by flow cytometry; assay type: cell-based, mouse; settings: 72 hours
Procedure: Lymph nodes and spleen were isolated from wild-type C57BL/6N mice. Tissue was mechanically dissociated with the back of a syringe plunger and passed through a […] filter. […] Treated cells were incubated at 37° C., 5% CO2 for the designed study duration. […] After staining, cells were pelleted, resuspended and run by a BD FACSymphony A3 flow cytometer.

CD3 T cells = settings: activated CD3 T cells, 3 μM or 10 μM, 72 hours
Procedure: as §2
Protein concentration was quantified using a BCA protein assay kit (Thermo #A53225). […] of protein diluted with 1×LDS sample buffer (Life Technologies #B0008) and 1×sample reducing agent (Life Technologies #B0009), were denatured at 95° C. for 5 minutes. Denatured T cell protein was resolved using a 10% Bolt Bis-Tris plus protein gel (Thermo #NW00102BOX) and denatured BM-MDSC protein was resolved using an 8% Bolt Bis-Tris plus protein gel (Thermo #NW00082BOX). Gels were transferred to a PVDF membrane (Invitrogen #IB401002) using a seven-minute P3 program on an Invitrogen iBlot dry transfer system. Membranes were then blocked for one hour using 5% nonfat dry milk in TBS-T, washed three times with TBS-T and probed with primary antibody diluted with 5% BSA in TBS-T overnight at 4° C. with gentle rocking. Primary antibody was removed, and membranes were washed three times with TBS-T followed by secondary antibody diluted in TBS-T at room temperature for one hour with gentle rocking. […] Secondary antibodies used were anti-mouse-HRP (Kindle Biosciences #R1005) and anti-rabbit-HRP (Kindle Biosciences #R1006). […]

BM-MDSCs = test: Arginase-I and iNOS immunoblot in BM-MDSCs; assay type: cell-based, mouse; settings: for arginase-I levels, reduction compared to DMSO / iNOS production, reduction compared to DMSO: 72 hours
Procedure: Bone marrow cells were isolated by flushing the tibia and femurs of wild-type C57BL/6N mice. […] To generate BM-MDSCs, 3×10^6 cells were plated in a 6-well dish and incubated at 37° C., 5% CO2 for 96 hours. For treatment, drugs were administered at either 3 μM or 10 μM concentrations and added to the BM-MDSC cell culture well 24 hours after plating.
Protein concentration was quantified using a BCA protein assay kit (Thermo #A53225). […] of protein diluted with 1×LDS sample buffer (Life Technologies #B0008) and 1×sample reducing agent (Life Technologies #B0009), were denatured at 95° C. for 5 minutes. Denatured T cell protein was resolved using a 10% Bolt Bis-Tris plus protein gel (Thermo #NW00102BOX) and denatured BM-MDSC protein was resolved using an 8% Bolt Bis-Tris plus protein gel (Thermo #NW00082BOX). Gels were transferred to a PVDF membrane (Invitrogen #IB401002) using a seven-minute P3 program on an Invitrogen iBlot dry transfer system. Membranes were then blocked for one hour using 5% nonfat dry milk in TBS-T, washed three times with TBS-T and probed with primary antibody diluted with 5% BSA in TBS-T overnight at 4° C. with gentle rocking. Primary antibody was removed, and membranes were washed three times with TBS-T followed by secondary antibody diluted in TBS-T at room temperature for one hour with gentle rocking. […] Secondary antibodies used were anti-mouse-HRP (Kindle Biosciences #R1005) and anti-rabbit-HRP (Kindle Biosciences #R1006). Analysis was conducted using ImageJ (NIH Bethesda, MD) and normalized to the housekeeping protein β-actin.

B16-OVA = test: In vivo adoptive cellular transfer, OT-I, B16-OVA tumor; set-up: species or system mouse
Procedure: as §1, with “Single-cell suspension was performed by chopping tumor tissue with scissors followed by a 30-minute incubation at 37° C. with 100 µg/ml DNase I (Roche #10104159001) and 0.5 U/ml Liberase (Roche #05401127001) in PBS. Solution was then diluted with cRPMI-1640 and passed through a 70 μm cell strainer, pelleted and resuspended in ACK lysis buffer to remove erythrocytes.” left out

Structure (SMILES): O=c1nc(OC[C@@H]2COCCO2)cc2n1CCc1cc(C#CC3CC3)ccc1-2 [GLPG1205, 9-Cyclopropylethynyl-2-((S)-1-[1,4]dioxan-2-ylmethoxy)-6,7-dihydropyrimido[6,1-a]isoquinolin-4-one]
- tumor growth rate after adoptive transfer of pre-treated pmel-I CD8 T cells (B16): significant reduction in the tumor growth rate
- percent of ATP generated by OXPHOS (CD8 T cells; DMSO 49%): 39.7%
- percent of ATP generated by glycolysis (CD8 T cells; DMSO 51%): 60.3%
- ATP production rate through mitochondrial OXPHOS (mitoATP) (CD8 T cells; DMSO 392.74): 486.75 pmol/min
- ATP production rate through glycolysis (glycoATP) (CD8 T cells; DMSO 409.61): 737.62 pmol/min
- total ATP production rate (CD8 T cells; DMSO control 816.19): 1224.27 pmol/min
- OCR, ECAR and PER (CD8 T cells; vs DMSO): raises the overall OCR, ECAR, and PER
- CD25 expression, increase vs DMSO (CD4 T cells; 3 μM): 14.28%
- CTLA4 expression, increase vs DMSO (CD4 T cells; 3 μM): 30.31%
- CD25 expression, increase vs DMSO (CD4 T cells; 10 μM): 11.37%
- CTLA4 expression, increase vs DMSO (CD4 T cells; 10 μM): 51.16%
- GPR84 expression (CD3 T cells): did not significantly affect GPR84 expression
- arginase-I levels, reduction compared to DMSO (BM-MDSCs; 3 μM): 1.79 times
- iNOS production, reduction compared to DMSO (BM-MDSCs; 3 μM): 1.5 times
- arginase-I levels, reduction compared to DMSO (BM-MDSCs; 10 μM): 2.75 times
- iNOS production, reduction compared to DMSO (BM-MDSCs; 10 μM): 1.35 times
- expression of Arginase 1 and iNOS (Western blot) (BM-MDSCs; bone marrow derived murine MDSC, descending concentrations (FIG. 4)): decreases the expression of Arginase 1 protein
- anti-tumor response (tumor volume) after adoptive transfer of pre-treated CD8 OT-I T cells (B16-OVA; T cells pre-treated ex vivo with 10 μM, B16-OVA tumor bearing mice, vs sham and DMSO pre-treated): significantly enhanced this anti-tumor effect
- intratumoral CD8 T cells positive for SIINFEKL tetramer (B16-OVA; T cells pre-treated with 10 μM, sham 20%, DMSO pre-treated 27.6%): 53.7%
